{"source": "patent US9364449B2", "about": "“Peptoid and synthetic oligomers, pharmaceutical compositions and methods of using same” (New York University, priority 2011, dated 2016)", "key": {"[1]": {"target": "T1, Aβ1-40 (Homo sapiens, UniProt P05067)", "T1 construct": "made in house; host or cells: chemical solid-phase peptide synthesis (L-amino acids), RP-HPLC purified", "T1 sequence (P05067 672-711)": "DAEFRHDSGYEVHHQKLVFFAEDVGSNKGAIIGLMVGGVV", "test": "Thioflavine-T aggregation assay, Aβ1-40 aggregated in the presence of compound", "assay_type": "biochemical", "procedure": "Peptoid modified derivatives of the KLVFFA (SEQ ID NO: 4) sequence were tested using Thioflavine-T aggregation assay to determine whether or not they are capable of forming fibrils themselves. […] In these treatment experiments, 100 μM Aβ40 or Aβ42 was mixed with 1-100 μM of the investigated compound and incubated up to 14 days. […] They were incubated alone or in the presence of peptoid modified derivatives of KLVFFA (SEQ ID NO: 4) sequence at concentrations of 1-100 μM. In addition, peptoid modified derivatives of KLVFFA (SEQ ID NO: 4) sequence were incubated alone as indicated above at the concentration of 100 μM. At the indicated intervals, samples containing 15 μg of incubated peptides were added to 1 mL of 50 mM/L glycine, pH 9.2 and 2 μM/L of Thioflavin-T (Sigma Chemical, Co.; St. Louis, Mo.). Fluorescence was measured at excitation 435 nm and emission 485 nm in a Hitachi F-2000 fluorescence spectrophotometer. A time scan of fluorescence was performed and three values after the decay reached a plateau (280, 290, 300 seconds) were averaged. The background fluorescence of 40 μl of Tris buffer added to 2 μM/L of Thioflavin-T solution was subtracted. Samples were run in duplicate. Differences in amount of fibrils formed by different peptides at particular time points were evaluated by one-way ANOVA followed by Tukey post hoc test."}, "[2]": {"target": "T1, Aβ1-40", "test": "Oligomerization assay (glutaraldehyde cross-linking, Western blot, densitometry)", "assay_type": "biochemical", "settings": "100 μM Aβ1-40 with 10 μM compound (10:1 Aβ:inhibitor), 4° C., 24 h", "procedure": "Autoradiography films were converted into 8 bit grayscale digital files using a Epson Perfection 4990 scanner (Epson America; Long Beach, Calif.) and Adobe Photoshop CS4 (Adobe Systems; San Jose, Calif.) and saved in a TIF format with a resolution of 600 dpi. Densitometric analysis of Western and dot-blot signals was performed using NIH Image J software v 1.42 (Bethesda, Md.) as previously described (Pankiewicz et al., 2006. Eur. J. Neurosci. 23, 2635-47; Sadowski et al., 2009. Neurobiol Dis; 34, 267-78).\nThe rationale is that Aβ oligomeric assemblies are particularly toxic to synaptic components and impair neurotransmission. […] GKLVFNmgA (SEQ ID NO: 310:1 Aβ:inhibitor ratio). Prior to electrophoresis, glutaraldehyde (0.4 mM final concentration) was added to prevent disassembly of complexes. Samples were immediately subjected to electrophoresis in non-reducing condition, Western-transfer, and detection with a mixture of 4G8 and 6E10 anti-Aβ Mabs."}, "[3]": {"tested_on": "primary hippocampal neurons", "test": "Immunocytochemistry and quantification of synaptic protein expression in neurons exposed to Aβ40", "assay_type": "cell-based, C57bL/6 mice", "experimental": "P0-P1 pups of C57bL/6 mice were killed by decapitation and brains were removed in aseptic conditions. To establish cultures of primary hippocampal neurons the hippocampi were dissected from both hemispheres under AmScope stereoscopic microscope (AmScope, Chino, Calif.). Fragments of tissue were placed in the ice-cold Ca^2+ and Mg^2+ free Hank's balanced salt solution (HBSS) and gently cut further into fine pieces which were then treated with 0.05% trypsin in HBSS for 10 min at 37° C. to obtain cell suspension. Following addition of 0.1% type-I-S trypsin inhibitor and 0.05% DNase I, the cell suspension was centrifuged at 500×g for 30 sec. The resulting pellet was triturated, centrifuged again at 500×g for 5 min and resuspended in the minimal essential medium (MEM) supplemented with heat-inactivated 10% fetal bovine serum (FBS), 0.5 mM glutamine, streptomycin (50 μg/ml) and penicillin (50 U/ml). The cell suspension was then filtered through a 70-μm mesh, and the cells were counted using hematocytometer (Hausser Scientific, Horsham, Pa.). The cells were seeded on poly-L-lysine coated 12-well plates. For biochemical analysis 5×10^5 cells were seeded directly on the bottom of each well whereas for immunohistochemistry a removable, poly-L-lysine coated round coverslip was placed on the bottom of the well and the number of seeded cells was reduced to 1×10^5 per well. The neurons were allowed to adhere to the surface for four hours and then the medium was replaced with the serum-free Neurobasal medium containing 2% B27 supplement, 0.5 mM glutamine, streptomycin (50 μg/ml) and penicillin (50 U/ml). At three days in vitro (DIV) 5 μM of cytosine-β-D-arabinoside (Ara C) was added for 48 hr to inhibit division of non-neuronal cells. At 7 DIV one well from each preparation of primary hippocampal neurons was randomly selected to determine the purity of the culture. This was done by calculating the ratio of cells immunostained against microtubule-associated protein 2 (MAP2), which is a neuronal specific marker against all cells stained with 4′,6-diamidino-2-phenylindole (DAPI) nucleic acid stain.\nMonomerized Aβ40 peptides were diluted in cell culture media and added to neuronal monocultures for 24 or 72 hr.\nCoverslip inserts covered by the primary hippocampal neuro^ns were immersed three times in PBS at 37° C., and then in 80% ice-cold methanol for 10 min to fix the neurons, and washed again three times in PBS. […] Biotinylated secondary antibodies (1:1,000) followed by Cy3 conjugated streptavidine (1:500) were used to detected binding of primary Abs to their antigens. […] Immunostained neurons were analyzed under 80i Nikon fluorescent microscope (Nikon Corp. Tokyo, Japan). […]"}, "[4]": {"test": "In vivo pharmacokinetic studies in rats"}, "[5]": {"settings": "18 DIV neurons, 10 μM Aβ40 plus 5 μM compound, 72 hr"}}, "note": "Non-standard residues stand in square brackets, D forms with d. Residues, ends and D or L forms follow the SMILES beside them. Sar = CNCC(=O)O", "data": [{"smiles": "CC(C)CC(NC(=O)C(CCCCN)NC(=O)CN)C(=O)NC(C(=O)NC(Cc1ccccc1)C(=O)N(C)CC(=O)NC(C)C(N)=O)C(C)C", "note": "(stereo not drawn) [GKLVFNmgA] (H-GKLVF[Sar]A-NH2; configuration not given here)", "values": [{"measurement": "inhibitory effect on the aggregation of Aβ1-40", "setting": "[1]; 1 μM compound, 100 μM Aβ1-40 (1:100 compound:Aβ ratio), p<0.001", "value": "strong inhibitory effect"}, {"measurement": "dose dependent effect on aggregation of Aβ1-40", "setting": "[1]; 100 μM Aβ1-40, 1-100 μM compound", "value": "strong dose dependent effect"}, {"measurement": "reduction of the amount of Aβ oligomers (densitometric analysis)", "setting": "[2]", "value": 61.3, "unit": "%"}, {"measurement": "NR1 NMDA receptor subunit positive densities, % of the control", "setting": "[3]; [5]", "value": "83 % of the control"}, {"measurement": "PSD-95 positive densities, % of the control", "setting": "[3]; [5]", "value": "82.3 % of the control"}, {"measurement": "synaptophysin positive densities, % of the control", "setting": "[3]; [5]", "value": "84.5 % of the control"}, {"measurement": "effect of compound alone on the expression of NR1, synaptophysin and PSD-95", "setting": "[3]; neurons treated with compound alone, no Aβ", "value": "no significant effect"}, {"measurement": "blood brain barrier (BBB) penetration", "setting": "[4]", "value": "good"}, {"measurement": "detection in the cerebrospinal fluid (CSF)", "setting": "[4]; following intravenous administration", "value": "can be detected"}, {"measurement": "level in plasma after intranasal delivery", "setting": "[4]; intranasal", "value": "High level"}, {"measurement": "level in plasma following oral delivery", "setting": "[4]; oral", "value": "Lesser level"}, {"measurement": "half-life", "setting": "[4]; rat, in vivo", "value": "< 2", "unit": "h"}]}]}
